In US8802597B2, “Herbicidal pyrimidines” (E I du Pont de Nemours and Company, priority 2003, dated 2014):

How the values were obtained:
Type in all cases: in vivo
[1] = tested on: Surinam grass (Brachiaria decumbens); assay: Test B pre/postemergence
Source text: (§1) Seeds selected from barnyardgrass (Echinochloa crus-galli), Surinam grass (Brachiaria decumbens), cocklebur (Xanthium strumarium), corn (Zea mays), crabgrass (Digitaria sanguinalis), giant foxtail (Setaria faberii), lambsquarters (Chenopodium album), morningglory (Ipomoea coccinea), pigweed (Amaranthus retroflexus), velvetleaf (Abutilon theophrasti), and wheat (Triticum aestivum) were planted and treated preemergence with test chemicals formulated in a non-phytotoxic solvent mixture which included a surfactant.
(§2) At the same time, plants selected from these crop and weed species and also blackgrass (Alopecurus myosuroides) and wild oat (Avena fatua) were treated with postemergence applications of test chemicals formulated in the same manner. Plants ranged in height from 2 to 18 cm (1- to 4-leaf stage) for postemergence treatments. Plant species in the flooded paddy test consisted of rice (Oryza sativa), umbrella sedge (Cyperus difformis), duck salad (Heteranthera limosa) and barnyardgrass (Echinochloa crus-galli) grown to the 2-leaf stage for testing. Treated plants and controls were maintained in a greenhouse for 13 to 15 days, after which time all species were compared to controls and visually evaluated. Plant response ratings, summarized in Table B, are based on a scale of 0 to 100 where 0 is no effect and 100 is complete control. A dash (-) response means no test result.

[2] = tested on: barnyardgrass (Echinochloa crus-galli); assay: Test B pre/postemergence
Source text: as §1, §2

[3] = tested on: cocklebur (Xanthium strumarium); assay: Test B pre/postemergence
Source text: as §1, §2

corn (Zea mays) = assay: Test B pre/postemergence
Source text: as §1, §2

[4] = tested on: crabgrass (Digitaria sanguinalis); assay: Test B pre/postemergence
Source text: as §1, §2

[5] = tested on: giant foxtail (Setaria faberii); assay: Test B pre/postemergence
Source text: as §1, §2

[6] = tested on: lambsquarters (Chenopodium album); assay: Test B pre/postemergence
Source text: as §1, §2

[7] = tested on: morningglory (Ipomoea coccinea); assay: Test B pre/postemergence
Source text: as §1, §2

[8] = tested on: pigweed (Amaranthus retroflexus); assay: Test B pre/postemergence
Source text: as §1, §2

[9] = tested on: velvetleaf (Abutilon theophrasti); assay: Test B pre/postemergence
Source text: as §1, §2

[10] = tested on: wheat (Triticum aestivum); assay: Test B pre/postemergence
Source text: as §1, §2

[11] = tested on: blackgrass (Alopecurus myosuroides); assay: Test B postemergence; details: for Blackgrass plant response rating: scale 0 to 100 (0 no effect, 100 complete control); for Plant response rating, Blackgrass: scale 0 to 100
In short: (§3)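 Visual rating, 0 (no effect) to 100 (complete control) versus controls, taken 13–15 days after treatment in greenhouse. Compounds formulated in non-phytotoxic solvent plus surfactant; pre: sprayed after seeding; post: plants at 1- to 4-leaf stage, 2–18 cm.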

wild oat (Avena fatua) = assay: Test B postemergence; details: for Oat, Wild plant response rating: scale 0 to 100 (0 no effect, 100 complete control); for Plant response rating, Oat, Wild: scale 0 to 100
In short: as §3

[12] = tested on: barnyardgrass (Echinochloa crus-galli); assay: Test B flooded paddy test; details: Flood, 1000 g ai/ha; scale 0 (no effect) to 100 (complete control)
Procedure: as §2

[13] = tested on: duck salad (Heteranthera limosa); assay: Test B flooded paddy test; details: Flood, 1000 g ai/ha; scale 0 to 100
Procedure: as §2

rice (Oryza sativa) = assay: Test B flooded paddy test; details: Flood, 1000 g ai/ha; scale 0 to 100
Procedure: as §2

[14] = tested on: umbrella sedge (Cyperus difformis); assay: Test B flooded paddy test; details: Flood, 1000 g ai/ha; scale 0 to 100
Procedure: as §2

[15] = Postemergence, 125 g ai/ha, scale 0 to 100 (0 no effect, 100 complete control)
[16] = Postemergence, 500 g ai/ha, scale 0 to 100
[17] = Preemergence, 125 g ai/ha, scale 0 to 100 (0 no effect, 100 complete control)
[18] = Preemergence, 500 g ai/ha, scale 0 to 100 (0 no effect, 100 complete control)
[19] = Postemergence, 62 g ai/ha, scale 0 to 100 (0 no effect, 100 complete control)
[20] = Postemergence, 250 g ai/ha, scale 0 to 100
[21] = Preemergence, 62 g ai/ha, scale 0 to 100, 0 no effect, 100 complete control
[22] = Preemergence, 250 g ai/ha, scale 0 to 100 (0 no effect, 100 complete control)

SMILES: COC(OC)c1nc(C2CC2)nc(N)c1F [Compound 46]
- Surinam Grass plant response rating [1, 15]: 0
- Plant response rating, Surinam Grass [1, 16]: 10
- Plant response rating, Surinam Grass [1, 17]: 0
- Surinam Grass plant response rating [1, 18]: 40
- Barnyardgrass plant response rating [2, 15]: 0
- Plant response rating, Barnyardgrass [2, 16]: 30
- Plant response rating, Barnyardgrass [2, 17]: 0
- Barnyardgrass plant response rating [2, 18]: 0
- Cocklebur plant response rating [3, 15]: 0
- Plant response rating, Cocklebur [3, 16]: 0
- Plant response rating, Cocklebur [3, 17]: 0
- Cocklebur plant response rating [3, 18]: 40
- Corn plant response rating (corn (Zea mays); [15]): 0
- Plant response rating, Corn (corn (Zea mays); [16]): 0
- Plant response rating, Corn (corn (Zea mays); [17]): 0
- Corn plant response rating (corn (Zea mays); [18]): 0
- Crabgrass plant response rating [4, 15]: 10
- Plant response rating, Crabgrass [4, 16]: 30
- Plant response rating, Crabgrass [4, 17]: 0
- Crabgrass plant response rating [4, 18]: 40
- Foxtail, Giant plant response rating [5, 15]: 0
- Plant response rating, Foxtail, Giant [5, 16]: 10
- Plant response rating, Foxtail, Giant [5, 17]: 0
- Foxtail, Giant plant response rating [5, 18]: 50
- Lambsquarters plant response rating [6, 15]: 10
- Plant response rating, Lambsquarters [6, 16]: 30
- Plant response rating, Lambsquarters [6, 17]: 10
- Lambsquarters plant response rating [6, 18]: 60
- Morningglory plant response rating [7, 15]: 80
- Plant response rating, Morningglory [7, 16]: 90
- Plant response rating, Morningglory [7, 17]: 50
- Morningglory plant response rating [7, 18]: 90
- Pigweed plant response rating [8, 15]: 70
- Plant response rating, Pigweed [8, 16]: 80
- Plant response rating, Pigweed [8, 17]: 80
- Pigweed plant response rating [8, 18]: 90
- Velvetleaf plant response rating [9, 15]: 0
- Plant response rating, Velvetleaf [9, 16]: 0
- Plant response rating, Velvetleaf [9, 17]: 0
- Velvetleaf plant response rating [9, 18]: 20
- Wheat plant response rating [10, 15]: 0
- Plant response rating, Wheat [10, 16]: 0
- Plant response rating, Wheat [10, 17]: 0
- Plant response rating, Wheat [10, 18]: 20
- Blackgrass plant response rating ([11]; 125 g ai/ha): 0
- Plant response rating, Blackgrass ([11]; 500 g ai/ha): 10
- Oat, Wild plant response rating (wild oat (Avena fatua); 125 g ai/ha): 0
- Plant response rating, Oat, Wild (wild oat (Avena fatua); 500 g ai/ha): 0
- Plant response rating, Barnyardgrass [12]: 0
- Plant response rating, Ducksalad [13]: 60
- Plant response rating, Rice (rice (Oryza sativa)): 0
- Plant response rating, Sedge, Umbrella [14]: 30

SMILES: CCOC(=O)c1nc(C2CC2)nc(NCCN(C)C)c1Br [Compound 38]
- Surinam Grass plant response rating [1, 15]: 0
- Plant response rating, Surinam Grass [1, 16]: 20
- Plant response rating, Surinam Grass [1, 17]: 0
- Surinam Grass plant response rating [1, 18]: 0
- Barnyardgrass plant response rating [2, 15]: 0
- Plant response rating, Barnyardgrass [2, 16]: 0
- Plant response rating, Barnyardgrass [2, 17]: 0
- Barnyardgrass plant response rating [2, 18]: 0
- Cocklebur plant response rating [3, 15]: 0
- Plant response rating, Cocklebur [3, 16]: 0
- Plant response rating, Cocklebur [3, 17]: 0
- Cocklebur plant response rating [3, 18]: 0
- Corn plant response rating (corn (Zea mays); [15]): 0
- Plant response rating, Corn (corn (Zea mays); [16]): 0
- Plant response rating, Corn (corn (Zea mays); [17]): 0
- Corn plant response rating (corn (Zea mays); [18]): 10
- Crabgrass plant response rating [4, 15]: 0
- Plant response rating, Crabgrass [4, 16]: 20
- Plant response rating, Crabgrass [4, 17]: 0
- Crabgrass plant response rating [4, 18]: 0
- Foxtail, Giant plant response rating [5, 15]: 0
- Plant response rating, Foxtail, Giant [5, 16]: 0
- Plant response rating, Foxtail, Giant [5, 17]: 0
- Foxtail, Giant plant response rating [5, 18]: 0
- Lambsquarters plant response rating [6, 15]: 20
- Plant response rating, Lambsquarters [6, 16]: 60
- Plant response rating, Lambsquarters [6, 17]: 20
- Lambsquarters plant response rating [6, 18]: 90
- Morningglory plant response rating [7, 15]: 10
- Plant response rating, Morningglory [7, 16]: 40
- Plant response rating, Morningglory [7, 17]: 0
- Morningglory plant response rating [7, 18]: 50
- Pigweed plant response rating [8, 15]: 30
- Plant response rating, Pigweed [8, 16]: 30
- Plant response rating, Pigweed [8, 17]: 10
- Pigweed plant response rating [8, 18]: 70
- Velvetleaf plant response rating [9, 15]: 0
- Plant response rating, Velvetleaf [9, 16]: 50
- Plant response rating, Velvetleaf [9, 17]: 0
- Velvetleaf plant response rating [9, 18]: 0
- Wheat plant response rating [10, 15]: 0
- Plant response rating, Wheat [10, 16]: 0
- Plant response rating, Wheat [10, 17]: 0
- Plant response rating, Wheat [10, 18]: 0
- Blackgrass plant response rating ([11]; 125 g ai/ha): 0
- Plant response rating, Blackgrass ([11]; 500 g ai/ha): 0
- Oat, Wild plant response rating (wild oat (Avena fatua); 125 g ai/ha): 0
- Plant response rating, Oat, Wild (wild oat (Avena fatua); 500 g ai/ha): 0
- Plant response rating, Barnyardgrass [12]: 0
- Plant response rating, Ducksalad [13]: 0
- Plant response rating, Rice (rice (Oryza sativa)): 0
- Plant response rating, Sedge, Umbrella [14]: 0

SMILES: CCOC(OCC)c1nc(C2CC2)nc(N)c1Br [Compound 45]
- Surinam Grass plant response rating [1, 19]: 0
- Plant response rating, Surinam Grass [1, 20]: 0
- Plant response rating, Surinam Grass [1, 21]: 0
- Plant response rating, Surinam Grass [1, 22]: 0
- Barnyardgrass plant response rating [2, 19]: 0
- Plant response rating, Barnyardgrass [2, 20]: 0
- Plant response rating, Barnyardgrass [2, 21]: 0
- Plant response rating, Barnyardgrass [2, 22]: 0
- Cocklebur plant response rating [3, 19]: 0
- Plant response rating, Cocklebur [3, 20]: 10
- Plant response rating, Cocklebur [3, 22]: 0
- Corn plant response rating (corn (Zea mays); [19]): 0
- Plant response rating, Corn (corn (Zea mays); [20]): 0
- Plant response rating, Corn (corn (Zea mays); [21]): 0
- Crabgrass plant response rating [4, 19]: 0
- Plant response rating, Crabgrass [4, 20]: 20
- Plant response rating, Crabgrass [4, 21]: 0
- Plant response rating, Crabgrass [4, 22]: 0
- Foxtail, Giant plant response rating [5, 19]: 0
- Plant response rating, Foxtail, Giant [5, 20]: 0
- Plant response rating, Foxtail, Giant [5, 21]: 0
- Plant response rating, Foxtail, Giant [5, 22]: 0
- Lambsquarters plant response rating [6, 19]: 10
- Plant response rating, Lambsquarters [6, 20]: 30
- Plant response rating, Lambsquarters [6, 21]: 0
- Plant response rating, Lambsquarters [6, 22]: 30
- Morningglory plant response rating [7, 19]: 40
- Plant response rating, Morningglory [7, 20]: 60
- Plant response rating, Morningglory [7, 21]: 30
- Plant response rating, Morningglory [7, 22]: 50
- Pigweed plant response rating [8, 19]: 30
- Plant response rating, Pigweed [8, 20]: 50
- Plant response rating, Pigweed [8, 21]: 0
- Plant response rating, Pigweed [8, 22]: 50
- Velvetleaf plant response rating [9, 19]: 0
- Plant response rating, Velvetleaf [9, 20]: 20
- Plant response rating, Velvetleaf [9, 21]: 0
- Plant response rating, Velvetleaf [9, 22]: 0
- Wheat plant response rating [10, 19]: 0
- Plant response rating, Wheat [10, 20]: 0
- Plant response rating, Wheat [10, 21]: 0
- Plant response rating, Wheat [10, 22]: 0
- Blackgrass plant response rating ([11]; 62 g ai/ha): 0
- Plant response rating, Blackgrass ([11]; 250 g ai/ha): 0
- Oat, Wild plant response rating (wild oat (Avena fatua); 62 g ai/ha): 0
- Plant response rating, Oat, Wild (wild oat (Avena fatua); 250 g ai/ha): 0
- Plant response rating, Barnyardgrass [12]: 0
- Plant response rating, Ducksalad [13]: 0
- Plant response rating, Rice (rice (Oryza sativa)): 0
- Plant response rating, Sedge, Umbrella [14]: 0
